Experimental findings from patent publication US20260042764A1, “COMPOSITIONS AND METHODS FOR INHIBITION OF KRAS” (TheRas, Inc., priority 2022, published 2026) are described below.

Each structure is given as a SMILES string. pIC50: −log10 of the molar value.

Experiment [1] concerns the target T1, Avi-KRAS G12R (1-169) GppNHp/RAF1 RBD-3xFLAG (52-151) (Homo sapiens, UniProt P01116, G12R).
T1 construct: Avi-KRAS G12R (1-169)
Put plainly: Raf1-KRAS G12R-GppNHP disruption HTRF assay (Biological Example 1). In kind it is binding. The following applies: KRAS G12R, GppNHp-loaded; class symbols. Summed up:
(§1)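 First, protein mix in Tris pH 7.5 buffer with NaCl, MgCl2, BSA, Tween and 10% DMSO is incubated 1 h at room temperature. Next, reagent mix is added and incubated a further 1 h at room temperature. Finally, HTRF is read and activity normalized to DMSO.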

Experiment [2] concerns the target T2, Avi-KRAS G12D (1-169) GppNHp/RAF1 RBD-3xFLAG (52-151) (Homo sapiens, UniProt P01116, G12D).
T2 construct: Avi-KRAS G12D (1-169)
Put plainly: Raf1-KRAS G12D-GppNHP disruption HTRF assay (Biological Example 1). In kind it is binding. The following applies: KRAS G12D, GppNHp-loaded; class symbols. In outline:
as §1

For experiment [3], the target named is T3, Avi-KRAS G12V (1-169) GppNHp/RAF1 RBD-3xFLAG (52-151) (Homo sapiens, UniProt P01116, G12V).
T3 construct: Avi-KRAS G12V (1-169)
T3 sequence (P01116 1-169 isoform P01116-2 G12V): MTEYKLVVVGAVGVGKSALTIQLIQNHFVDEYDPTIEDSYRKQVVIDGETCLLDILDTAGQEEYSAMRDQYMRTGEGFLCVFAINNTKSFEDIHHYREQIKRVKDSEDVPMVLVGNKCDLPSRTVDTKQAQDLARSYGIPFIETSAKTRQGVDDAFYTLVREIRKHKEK
Put plainly: Raf1-KRAS G12V-GppNHP disruption HTRF assay (Biological Example 1). The following applies: KRAS G12V, GppNHp-loaded; class symbols. In kind it is binding. In outline: as §1

The target of experiment [4] is T4, Avi-KRAS WT (1-169) GppNHp/RAF1 RBD-3xFLAG (52-151) (Homo sapiens, UniProt P01116).
T4 construct: Avi-KRAS WT (1-169)
T4 sequence (P01116 1-169 isoform P01116-2): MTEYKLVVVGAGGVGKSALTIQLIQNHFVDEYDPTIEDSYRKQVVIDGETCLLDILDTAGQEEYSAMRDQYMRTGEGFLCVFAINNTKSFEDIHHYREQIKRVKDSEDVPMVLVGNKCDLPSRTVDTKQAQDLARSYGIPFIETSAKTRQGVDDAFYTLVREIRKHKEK
Put plainly: Raf1-KRAS WT-GppNHP disruption HTRF assay (Biological Example 1). In kind it is binding. The following applies: KRAS WT, GppNHp-loaded; class symbols. In outline:
as §1

Another experiment concerns SW620 cells (KRAS G12V). Briefly: Cell-based pERK HTRF assay in SW620 cell (Biological Example 4). The following applies: Homo sapiens, SW-620, SW620 (KRAS G12V) cells, pERK HTRF; class symbols. Summed up:
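This assay measures inhibition of ERK phosphorylation downstream of KRAS G12V in intact SW620 cells. Compounds are applied for 4 h over nine half-log concentrations starting at 1 μM, and pERK is quantified by HTRF.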

The subject of the next experiment is GP2d cells (KRAS G12D). Put plainly: Cell-based pERK HTRF assay in GP2d cell (Biological Example 2). The following applies: GP2d, GP2d (KRAS G12D) cells, pERK HTRF; class symbols. Summed up:
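HTRF read-out of pERK (excitation 320 nm, emission 615 nm) after lysates sat 4–24 h at room temperature with Eu cryptate and d2 antibodies.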

T2 sequence (P01116 1-169 isoform P01116-2 G12D): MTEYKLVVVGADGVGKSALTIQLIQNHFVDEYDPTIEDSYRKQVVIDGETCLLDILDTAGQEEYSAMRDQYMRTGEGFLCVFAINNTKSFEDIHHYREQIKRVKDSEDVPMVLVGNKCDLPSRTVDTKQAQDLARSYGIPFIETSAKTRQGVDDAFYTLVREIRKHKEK
T1 sequence (P01116 1-169 isoform P01116-2 G12R): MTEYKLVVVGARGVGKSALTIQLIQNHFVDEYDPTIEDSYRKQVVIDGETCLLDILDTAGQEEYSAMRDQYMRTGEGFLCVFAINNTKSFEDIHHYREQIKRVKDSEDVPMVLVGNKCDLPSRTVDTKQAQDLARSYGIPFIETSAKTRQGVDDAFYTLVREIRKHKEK

Regarding `CCN(c1nc(OC[C@@]23CCCN2C[C@H](F)C3)nc2c(F)c(-c3ccc(F)c4sc(N)c(C#N)c34)c(C(F)(F)F)cc12)[C@H]1CCN(C(=O)OCC2CC2)C1` (atropisomer, axis not shown) [Compound 620], the pIC50 is over 7.00 in experiment [1]; over 7.00 in experiment [2]; over 7.00 in experiment [3]; 6.00 to 7.00 in experiment [4]; over 7.00 in the experiment on SW620 cells (KRAS G12V); over 7.00 with GP2d cells (KRAS G12D).
Take `Cc1nnn2c1CN(c1nc(OC[C@@]34CCCN3C[C@H](F)C4)nc3c(F)c(-c4ccc(F)c5sc(N)c(C#N)c45)c(C(F)(F)F)cc13)[C@@H](C)C2` (atropisomer, axis not shown) [Compound 624]: the pIC50 in experiment [1] is 6.00 to 7.00; in experiment [2], 6.00 to 7.00; in experiment [3], 6.00 to 7.00; in experiment [4], 6.00 to 7.00; in the experiment on SW620 cells (KRAS G12V) it was over 7.00; in the experiment with GP2d cells (KRAS G12D), over 7.00.
Take `C[C@H]1Cn2nnc(C#N)c2CN1c1nc(OC[C@@]23CCCN2C[C@H](F)C3)nc2c(F)c(-c3ccc(F)c4sc(N)c(C#N)c34)c(C(F)(F)F)cc12` (atropisomer, axis not shown) [Compound 625]: the negative logarithm of the IC50 (pIC50) in experiment [1] is 5.00 to 6.00; in experiment [2], 6.00 to 7.00; in experiment [3] it was 5.00 to 6.00; in experiment [4], 5.00 to 6.00; with SW620 cells (KRAS G12V), over 7.00; in the experiment on GP2d cells (KRAS G12D) it was over 7.00.
Consider `CCN(c1nc(OC[C@@]23CCCN2C[C@H](F)C3)nc2c(F)c(-c3ccc(F)c4sc(N)c(C#N)c34)c(C(F)(F)F)cc12)[C@H]1C[C@@H]2CCC(=O)N2C1` (atropisomer, axis not shown) [Compound 628], for which the pIC50 (in experiment [1]; in experiment [2]; in experiment [3]; in experiment [4]; with SW620 cells (KRAS G12V); in the experiment with GP2d cells (KRAS G12D)) was over 7.00 throughout.
Turning to `CCN(c1nc(OC[C@@]23CCCN2C[C@H](F)C3)nc2c(F)c(-c3ccc(F)c4sc(N)c(C#N)c34)c(C(F)(F)F)cc12)[C@@H]1C[C@@H](C)N(C(=O)C2COC2)C1` (atropisomer, axis not shown) [Compound 629], the pIC50 in experiment [1] was 6.00 to 7.00; in experiment [2], 6.00 to 7.00; in experiment [3], 6.00 to 7.00; in experiment [4], 6.00 to 7.00; with SW620 cells (KRAS G12V), over 7.00; with GP2d cells (KRAS G12D), over 7.00.
Consider `CCN(c1nc(OC[C@@]23CCCN2C[C@H](F)C3)nc2c(F)c(-c3ccc(F)c4sc(N)c(C#N)c34)c(C(F)(F)F)cc12)[C@@H]1C[C@H](C)N(C(=O)C2COC2)C1` (atropisomer, axis not shown) [Compound 630], for which the pIC50 was 6.00 to 7.00 in experiment [1]; 6.00 to 7.00 in experiment [2]; 6.00 to 7.00 in experiment [3]; 6.00 to 7.00 in experiment [4]; over 7.00 in the experiment on SW620 cells (KRAS G12V); over 7.00 in the experiment on GP2d cells (KRAS G12D).
Consider `CCN(c1nc(OC[C@@]23CCCN2C[C@H](F)C3)nc2c(F)c(-c3ccc(F)c4sc(N)c(C#N)c34)c(C(F)(F)F)cc12)[C@H]1C[C@@H](COC)N(C(C)=O)C1` (atropisomer, axis not shown) [Compound 632], for which the pIC50 in experiment [1] is 6.00 to 7.00; in experiment [2], 6.00 to 7.00; in experiment [3], 6.00 to 7.00; in experiment [4], 6.00 to 7.00; in the experiment with SW620 cells (KRAS G12V), over 7.00; with GP2d cells (KRAS G12D), over 7.00.
As for `CCN1C[C@@H](N(CC)c2nc(OC[C@@]34CCCN3C[C@H](F)C4)nc3c(F)c(-c4ccc(F)c5sc(N)c(C#N)c45)c(C(F)(F)F)cc23)CC1=O` (atropisomer, axis not shown) [Compound 634], the pIC50 (in experiment [1]; in experiment [2]; in experiment [3]; in experiment [4]; in the experiment with SW620 cells (KRAS G12V); in the experiment with GP2d cells (KRAS G12D)) was over 7.00 each time.
As to `CCN(c1nc(OC[C@@]23CCCN2C[C@H](F)C3)nc2c(F)c(-c3ccc(F)c4sc(N)c(C#N)c34)c(C(F)(F)F)cc12)[C@H]1CC(=O)N(CCF)C1` (atropisomer, axis not shown) [Compound 635], the pIC50 in experiment [1] was over 7.00; in experiment [2], over 7.00; in experiment [3] it was 6.00 to 7.00; in experiment [4], over 7.00; with SW620 cells (KRAS G12V), over 7.00; with GP2d cells (KRAS G12D), over 7.00.
With `CCN(c1nc(OC[C@@]23CCCN2C[C@H](F)C3)nc2c(F)c(-c3ccc(F)c4sc(N)c(C#N)c34)c(C(F)(F)F)cc12)[C@H]1CCN(C(=O)N2CC3(COC3)C2)C1` (atropisomer, axis not shown) [Compound 637], the pIC50 (in experiment [1]; in experiment [2]; in experiment [3]; in experiment [4]; in the experiment with SW620 cells (KRAS G12V); in the experiment on GP2d cells (KRAS G12D)) was over 7.00 throughout.
Consider `CCN(c1nc(OC[C@@]23CCCN2C[C@H](F)C3)nc2c(F)c(-c3ccc(F)c4sc(N)c(C#N)c34)c(C(F)(F)F)cc12)[C@H]1CCN(C(=O)OCC2COC2)C1` (atropisomer, axis not shown) [Compound 639], for which the pIC50 (in experiment [1]; in experiment [2]; in experiment [3]; in experiment [4]; with SW620 cells (KRAS G12V); in the experiment with GP2d cells (KRAS G12D)) was over 7.00 throughout.
On to `CCN(c1nc(OC[C@@]23CCCN2C[C@H](F)C3)nc2c(F)c(-c3ccc(F)c4sc(N)c(C#N)c34)c(C(F)(F)F)cc12)[C@H]1CCN(C(=O)OCC2CN(C(C)=O)C2)C1` (atropisomer, axis not shown) [Compound 640], for which the pIC50 (in experiment [1]; in experiment [2]; in experiment [3]; in experiment [4]; in the experiment with SW620 cells (KRAS G12V); in the experiment with GP2d cells (KRAS G12D)) was over 7.00 each time.
Regarding `CC(=O)N1CC[C@H]2[C@@H]1CN2c1nc(OC[C@@]23CCCN2C[C@H](F)C3)nc2c(F)c(-c3ccc(F)c4sc(N)c(C#N)c34)c(C(F)(F)F)cc12` (atropisomer, axis not shown) [Compound 641], the negative-log IC50 (pIC50) in experiment [1] is 5.00 to 6.00; in experiment [2], 5.00 to 6.00; in experiment [3] it was 5.00 to 6.00; in experiment [4], 6.00 to 7.00; with SW620 cells (KRAS G12V), over 7.00; with GP2d cells (KRAS G12D) it was over 7.00.
For the molecule `CCC(=O)N1CC[C@H]2[C@@H]1CN2c1nc(OC[C@@]23CCCN2C[C@H](F)C3)nc2c(F)c(-c3ccc(F)c4sc(N)c(C#N)c34)c(C(F)(F)F)cc12` (atropisomer, axis not shown) [Compound 642], the pIC50 in experiment [1] is 5.00 to 6.00; in experiment [2] it was 5.00 to 6.00; in experiment [3], 5.00 to 6.00; in experiment [4], 5.00 to 6.00; in the experiment with SW620 cells (KRAS G12V) it was 6.00 to 7.00; with GP2d cells (KRAS G12D) it was over 7.00.
For `N#Cc1c(N)sc2c(F)ccc(-c3c(C(F)(F)F)cc4c(N5C[C@H]6[C@@H]5CCN6C(=O)C5CC5)nc(OC[C@@]56CCCN5C[C@H](F)C6)nc4c3F)c12` (atropisomer, axis not shown) [Compound 643], the pIC50 in experiment [1] is 5.00 to 6.00; in experiment [2] it was 5.00 to 6.00; in experiment [3] it was 5.00 to 6.00; in experiment [4], 5.00 to 6.00; with SW620 cells (KRAS G12V), 6.00 to 7.00; in the experiment on GP2d cells (KRAS G12D) it was 6.00 to 7.00.
Consider `CCN(c1nc(OC[C@@]23CCCN2C[C@H](F)C3)nc2c(F)c(-c3ccc(F)c4sc(N)c(C#N)c34)c(C(F)(F)F)cc12)[C@H]1C[C@H](COC)N(C(C)=O)C1` (atropisomer, axis not shown) [Compound 647], for which the pIC50 was 6.00 to 7.00 in experiment [1]; over 7.00 in experiment [2]; over 7.00 in experiment [3]; 6.00 to 7.00 in experiment [4]; over 7.00 in the experiment on SW620 cells (KRAS G12V); over 7.00 in the experiment on GP2d cells (KRAS G12D).
Consider `CCC(=O)N1C[C@@H](N(CC)c2nc(OC[C@@]34CCCN3C[C@H](F)C4)nc3c(F)c(-c4ccc(F)c5sc(N)c(C#N)c45)c(C(F)(F)F)cc23)C[C@@H]1COC` (atropisomer, axis not shown) [Compound 648], for which the pIC50 is over 7.00 in experiment [1]; over 7.00 in experiment [2]; over 7.00 in experiment [3]; 6.00 to 7.00 in experiment [4]; over 7.00 in the experiment on SW620 cells (KRAS G12V); over 7.00 in the experiment with GP2d cells (KRAS G12D).
As to `CCC(=O)N1C[C@@H](N(CC)c2nc(OC[C@@]34CCCN3C[C@H](F)C4)nc3c(F)c(-c4ccc(F)c5sc(N)c(C#N)c45)c(C(F)(F)F)cc23)C[C@H]1COC` (atropisomer, axis not shown) [Compound 649], the pIC50 is 6.00 to 7.00 in experiment [1]; 6.00 to 7.00 in experiment [2]; 6.00 to 7.00 in experiment [3]; 6.00 to 7.00 in experiment [4]; over 7.00 with SW620 cells (KRAS G12V); over 7.00 in the experiment with GP2d cells (KRAS G12D).
